In patent EP0051773A1, “Penicillins, their salts, process for their preparation and pharmaceutical compositions containing them” (Dr. Karl Thomae GmbH, priority 1980, dated 1982):
Values after ≈ are worked out from the molar mass of the structure shown.

What was measured:
[1] = tested on: Enterobacter cloacae ATCC 13 047; test: serial dilution test in microtiter system (bacteriostasis, MIC); format: cell-based; details: ATCC13, liquid medium, 18 to 20 h at 37°C, read-out: MHK-Werte Eb. cloacae 13 047
Protocol: (§1) Für die Untersuchungen wurde die Methode des Reihenverdünnungstestes im Mikrotitersystem angewandt. Die Prüfung der Substanzen auf Bakteriostase erfolgte in flüssigem Medium. Es wurde die Bakteriostasewirkung bei folgenden Konzentrationen untersucht.
(§2) Es wurde ein Nährboden folgender Zusammensetzung benutzt: 10 g Pepton, 8 g Fleischextrakt-Oxoid, 3 g Natriumschlorid, 2 g sek. Natriumphosphat werden mit dest. Wasser auf 1000 ml aufgefüllt (pH 7,2-7,4). Lediglich bei der Testung gegen Streptokokken wurde 1% Glucose hinzugefügt. Das Alter der Primärkulturen betrug etwa 20 Stunden. Die Einstellung der Keimsuspension erfolgte am Photometer (nach "Eppendorf") (Reagenzglas-Durchmesser 14 mm, Filter 546 nm) anhand der Trübung einer Bariumsulfat-Vergleichssuspension, die durch eine Bariumsulfat-Aufschwemmung erzeugt wurde, welche durch die Zugabe von 3,0 ml 1%ige Bariumchloridlösung in 97 ml 1%ige Schwefelsäure entstand. Nach der Einstellung wurden Streptococcus Aronson im Verhältnis 1:15 und die übrigen Testkeime im Verhältnis 1:1500 mit einer Kochsalzlösung weiter verdünnt.
(§3) 16 mg der jeweiligen Substanz wurden in 10 ml-Meßkolben eingewogen und mit dem Lösungsmittel bis zur Marke aufgefüllt. Die weitere Verdünnungsreihe wurde mit destilliertem Wasser oder dem jeweiligen Lösungsmittel hergestellt.
(§4) Die Vertiefungen der Mikrotiterplatten wurden mit 0,2 ml Nährmedium, 0,01 ml der entsprechenden Substanzverdünnung und mit einem Tropfen Keimsuspension (0,01 ml) beschickt und 18 bis 20 Stunden bei 37°C bebrütet. Eine Lösungsmittelkontrolle wurde stets mitgeführt.
(§5) Die Ablesung wurde makroskopisch vorgenommen, wobei die jeweilige Grenkonzentration (= niedrigste noch bakteriostatisch wirksame Konzentration) ermittelt wurde.
(§6) Als Testorganismen wurden benützt: - Staphylococcus aureus SG 511, Escherichia coli ATCC 11 775, Pseudomonas aeruginosa Hamburgensis und Walter, Serratia marcescens ATCC 13 880, Klebsiella pneumoniae ATCC 10 031 und BC 6, Proteus mirabilis Hamburgensis, Proteus rettgeri BC 7 und Enterobacter cloacae ATCC 13 047.
(§7) In der folgenden Tabelle 2 sind die ermittelten minimalen Hemmkonzentrationen (MIC) für typische Vertreter der erfindungsgemäßen Verbindungen aufgeführt, wobei sich die Ziffern auf die Penicilline der Tabelle 1 Seite 18 beziehen.

[2] = tested on: Escherichia coli ATCC 11 775; test: as above; format: cell-based; details: ATCC11, liquid medium, 18 to 20 h at 37°C, read-out: MHK-Werte E.coli ATCC 11 755
Protocol: as §1, §2, §3, §4, §5, §6, §7

[3] = tested on: Klebsiella pneumoniae ATCC 10 031; test: as above; format: cell-based; details: ATCC10, liquid medium, 18 to 20 h at 37°C, read-out: MHK-Werte Kl. pneum. ATCC 10 031
Protocol: as §1, §2, §3, §4, §5, §6, §7

[4] = tested on: Klebsiella pneumoniae BC 6; test: as above; format: cell-based; details: BC6, liquid medium, 18 to 20 h at 37°C, read-out: MHK-Werte Kl. pneum. BC 6
Protocol: as §1, §2, §3, §4, §5, §6, §7

[5] = tested on: Proteus mirabilis Hamburgensis; test: as above; format: cell-based; details: liquid medium, 18 to 20 h at 37°C, read-out: MHK-Werte Prot. mir. Hbg.
Protocol: as §1, §2, §3, §4, §5, §6, §7

[6] = tested on: Proteus rettgeri BC 7; test: as above; format: cell-based; details: Providencia rettgeri, BC7; liquid medium, 18 to 20 h at 37°C; read-out: MHK-Werte Prot. rettg. BC 7
Protocol: as §1, §2, §3, §4, §5, §6, §7

[7] = tested on: Pseudomonas aeruginosa Hamburgensis; test: as above; format: cell-based; details: liquid medium, 18 to 20 h at 37°C, read-out: MHK-Werte Pseud. aerug. Hbg.
Protocol: as §1, §2, §3, §4, §5, §6, §7

[8] = tested on: Pseudomonas aeruginosa Walter; test: as above; format: cell-based; details: liquid medium, 18 to 20 h at 37°C, read-out: MHK-Werte Pseud. aerug. Walter
Protocol: as §1, §2, §3, §4, §5, §6, §7

[9] = tested on: Serratia marcescens ATCC 13 880; test: as above; format: cell-based; details: ATCC13, liquid medium, 18 to 20 h at 37°C, read-out: MHK-Werte Serr. marcesc. ATCC 13 880
Protocol: as §1, §2, §3, §4, §5, §6, §7

[10] = tested on: Staphylococcus aureus SG 511; test: as above; format: cell-based; details: SG511, liquid medium, 18 to 20 h at 37°C, read-out: MHK-Werte Staph. aureus SG 511
Protocol: as §1, §2, §3, §4, §5, §6, §7

[11] = tested on: E.coli ATCC 11 775; test: experimental intraperitoneal infection in mice, ED50 (survival); format: in vivo, Mäuse; details: Escherichia coli, ATCC 11 / ATCC 1175, sc, 168 h; female NMRI mice, i.p. infection, s.c. application, treated once, 7 days observation
Protocol: (§8) Eine Reihe der erfindungsgemäßen Verbindungen wurde in vivo bei experimentellen Infektionen an Mäusen untersucht. Man verwendete als pathogene Bakterien E.coli ATCC 11 775 und Pseudomonas aeruginosa Walter. Es wurde eine intraperitoneale Infektion mit 0,2 ml einer 5%igen Mucinsuspension der Bakterien gesetzt. Dies entspricht etwa 2x10^6 Keime E.coli bzw. 8x10^5 Keime Pseudomonas/Maus. Weibliche Mäuse vom Stamm NMRI wurden in Gruppen von jeweils 10 Tieren aufgeteilt, zwei Gruppen blieben unbehandelt, die restlichen Gruppen wurden mit verschiedenen Dosen der jeweiligen erfindungsgemäßen Penicilline zur Bestimmung der ED50 (Dosis, bei der 50 % der Tiere überleben) behandelt. Bei der E.coli-Infektion wurde einmal therapiert. Bei der Pseudomonas-Infektion wurde dreimal behandelt.
(§9) Der Beobachtungszeitraum betrug in beiden Fällen 7 Tage. Die Ergebnisse dieser Teste mit repräsentativen Vertretern der erfindungsgemäßen Penicilline sind in der Tabelle 3 dargestellt.

[12] = tested on: Pseudomonas aeruginosa Walter; test: as above; format: in vivo, Mäuse; details: sc, 168 h, female NMRI mice, i.p. infection, s.c. application, treated three times, 7 days observation, read-out: ED50 Pseud. aerug. Walter
Protocol: as §8, §9

C[S+]([O-])c1ccc(Nc2ncc(NC(=O)NC(C(=O)NC3C(=O)N4C3SC(C)(C)C4C(=O)O)c3ccccc3)c(O)n2)cc1 (stereo not shown) [Verbindung 21]
MIC [1]: 2 µg/mL (≈ 3.13 µM) | MIC [2]: 0.25 µg/mL (≈ 0.391 µM) | MIC [3]: 2 µg/mL (≈ 3.13 µM) | MIC [4]: 1 µg/mL (≈ 1.56 µM) | MIC [5]: 0.12 µg/mL (≈ 0.188 µM) | MIC [6]: 0.5 µg/mL (≈ 0.782 µM) | MIC [7]: 2 µg/mL (≈ 3.13 µM) | MIC [8]: 2 µg/mL (≈ 3.13 µM) | MIC [9]: 0.25 µg/mL (≈ 0.391 µM) | MIC [10]: 0.25 µg/mL (≈ 0.391 µM) | ED50 [11]: 3 mg/kg | ED50 [12]: 6.6 mg/kg

CC1(C)SC2C(NC(=O)C(NC(=O)Nc3cnc(Nc4ccc(S(C)(=O)=O)cc4)nc3O)c3ccccc3)C(=O)N2C1C(=O)O (stereo not shown) [Verbindung 24]
MIC [1]: 2 µg/mL (≈ 3.05 µM) | MIC [2]: 0.12 µg/mL (≈ 0.183 µM) | MIC [3]: 0.5 µg/mL (≈ 0.763 µM) | MIC [4]: 0.5 µg/mL (≈ 0.763 µM) | MIC [5]: 0.06 µg/mL (≈ 0.0915 µM) | MIC [6]: 0.12 µg/mL (≈ 0.183 µM) | MIC [7]: 1 µg/mL (≈ 1.53 µM) | MIC [8]: 2 µg/mL (≈ 3.05 µM) | MIC [9]: 0.12 µg/mL (≈ 0.183 µM) | MIC [10]: 0.25 µg/mL (≈ 0.381 µM) | ED50 [11]: 4.7 mg/kg | ED50 [12]: 7.5 mg/kg

CC1(C)SC2C(NC(=O)C(NC(=O)Nc3cnc(Nc4ccc(C(N)=O)cc4)nc3O)c3ccccc3)C(=O)N2C1C(=O)O (stereo not shown) [Verbindung 34]
MIC [1]: 2 µg/mL (≈ 3.22 µM) | MIC [2]: 0.25 µg/mL (≈ 0.403 µM) | MIC [3]: 4 µg/mL (≈ 6.44 µM) | MIC [4]: 2 µg/mL (≈ 3.22 µM) | MIC [5]: 0.06 µg/mL (≈ 0.0967 µM) | MIC [6]: 0.25 µg/mL (≈ 0.403 µM) | MIC [7]: 1 µg/mL (≈ 1.61 µM) | MIC [8]: 2 µg/mL (≈ 3.22 µM) | MIC [9]: 0.25 µg/mL (≈ 0.403 µM) | MIC [10]: 0.25 µg/mL (≈ 0.403 µM) | ED50 [11]: 3.2 mg/kg

CC1(C)SC2C(NC(=O)C(NC(=O)Nc3cnc(Nc4ccc([N+](=O)[O-])cc4)nc3O)c3ccccc3)C(=O)N2C1C(=O)O (stereo not shown) [Verbindung 41]
MIC [1]: 0.5 µg/mL (≈ 0.803 µM) | MIC [2]: 0.12 µg/mL (≈ 0.193 µM) | MIC [3]: 0.5 µg/mL (≈ 0.803 µM) | MIC [4]: 0.5 µg/mL (≈ 0.803 µM) | MIC [5]: 0.06 µg/mL (≈ 0.0964 µM) | MIC [6]: 0.25 µg/mL (≈ 0.402 µM) | MIC [7]: 2 µg/mL (≈ 3.21 µM) | MIC [8]: 2 µg/mL (≈ 3.21 µM) | MIC [9]: 0.12 µg/mL (≈ 0.193 µM) | MIC [10]: 0.25 µg/mL (≈ 0.402 µM) | ED50 [11]: 8.3 mg/kg

CC1(C)SC2C(NC(=O)C(NC(=O)Nc3cnc(Nc4ccc(NC(N)=O)cc4)nc3O)c3ccc(O)cc3)C(=O)N2C1C(=O)O (stereo not shown) [Verbindung 43]
MIC [1]: 4 µg/mL (≈ 6.14 µM) | MIC [2]: 0.5 µg/mL (≈ 0.767 µM) | MIC [3]: 8 µg/mL (≈ 12.3 µM) | MIC [4]: 8 µg/mL (≈ 12.3 µM) | MIC [5]: 0.06 µg/mL (≈ 0.0921 µM) | MIC [6]: 1 µg/mL (≈ 1.53 µM) | MIC [7]: 1 µg/mL (≈ 1.53 µM) | MIC [8]: 1 µg/mL (≈ 1.53 µM) | MIC [9]: 0.5 µg/mL (≈ 0.767 µM) | MIC [10]: 0.5 µg/mL (≈ 0.767 µM) | ED50 [11]: 5.6 mg/kg

CC1(C)S[C@@H]2[C@H](NC(=O)C(NC(=O)Nc3cnc(Nc4ccc(C(N)=O)c(O)c4)nc3O)c3ccc(O)cc3)C(=O)N2[C@H]1C(=O)O (stereo partly shown) [Verbindung 50]
MIC [1]: 2 µg/mL (≈ 3.06 µM) | MIC [2]: 0.25 µg/mL (≈ 0.383 µM) | MIC [3]: 2 µg/mL (≈ 3.06 µM) | MIC [4]: 2 µg/mL (≈ 3.06 µM) | MIC [5]: 0.06 µg/mL (≈ 0.0919 µM) | MIC [6]: 0.5 µg/mL (≈ 0.766 µM) | MIC [7]: 1 µg/mL (≈ 1.53 µM) | MIC [8]: 1 µg/mL (≈ 1.53 µM) | MIC [9]: 0.25 µg/mL (≈ 0.383 µM) | MIC [10]: 0.5 µg/mL (≈ 0.766 µM) | ED50 [11]: 4 mg/kg

CC1(C)S[C@@H]2[C@H](NC(=O)C(NC(=O)Nc3cnc(NCc4ccc(O)cc4)nc3O)c3ccc(O)cc3)C(=O)N2[C@H]1C(=O)O (stereo partly shown) [Verbindung 57]
MIC [1]: 1 µg/mL (≈ 1.6 µM) | MIC [2]: 0.25 µg/mL (≈ 0.401 µM) | MIC [3]: 4 µg/mL (≈ 6.41 µM) | MIC [4]: 8 µg/mL (≈ 12.8 µM) | MIC [5]: 0.06 µg/mL (≈ 0.0962 µM) | MIC [6]: 0.5 µg/mL (≈ 0.802 µM) | MIC [7]: 2 µg/mL (≈ 3.21 µM) | MIC [8]: 1 µg/mL (≈ 1.6 µM) | MIC [9]: 1 µg/mL (≈ 1.6 µM) | MIC [10]: 0.25 µg/mL (≈ 0.401 µM) | ED50 [11]: 7.2 mg/kg
